{
  "source": "patent US20240239750A1",
  "about": "“PHARMACEUTICAL PREPARATION” (Aerie Pharmaceuticals, Inc., priority 2021, published 2024)",
  "type_in_all_cases": "physicochemical",
  "key": {"TG/DSC thermal analysis": {"experiment": "TG/DSC thermal analysis", "details": "for Enthalpy / Onset Temperature / Signal Temperature: TG/DSC signal of Compound 1 mono-tosylate solid form; for onset of thermal decomposition: TG/DSC, 10° C./min", "procedure": "(§1) Thermogravimetric Analysis/Differential Scanning Calorimetry (TGA/DSC): Approximately, 5-10 mg of material was added into a pre-tared open aluminum pan and loaded into a TA Instruments Discovery SDT 650 Auto—Simultaneous DSC and held at room temperature. The sample was then heated at a rate of 10° C./min from 30° C. to 350° C. during which time the change in sample weight was recorded along with the heat flow response (DSC). Nitrogen was used as the sample purge gas, at a flow rate of 200 cm^3/min.\nas §1, with “Thermogravimetric/Differential Thermal Analysis (TG/DTA):” for “Thermogravimetric Analysis/Differential Scanning Calorimetry (TGA/DSC):”, “cm^3/min. […]” for “cm^3/min.”"}, "[1]": {"experiment": "Polymorph stability study (competitive slurrying)", "procedure": "To prepare solutions saturated with Compound 1 mono-tosylate for competitive slurrying, 2×100 mg (0.20 mmol) amorphous Compound 1 mono-tosylate was weighed into 2×4 mL vials. To each vial, 500 μL of ethanol was added and the vials were manually shaken for a few seconds. Complete dissolution was noted. A further about 20 mg of amorphous Compound 1 mono-tosylate was added to each vial and the vials were agitated for about 3 hours: one vial at ambient temperature and one vial at 60° C. After about 3 hours, both were solutions. More amorphous Compound 1 mono-tosylate (about 30 mg) was added to each vial and they were shaken at their respective temperatures again for about another hour. Both appeared to be slurries. To remove the excess solids, the slurries were filtered centrifugally and the mother liquors each placed into separate, clean vials. […] After 48 hours, the solids were recovered via centrifugal filtration and analyzed by XRPD. The XRPD plate containing the solids was then dried at 40° C. for 2 hours and re-analyzed.\nTo prepare a solution saturated with amorphous Compound 1 mono-tosylate for competitive slurrying, 50 mg (0.10 mmol) of amorphous Compound 1 mono-tosylate was weighed into a 4 mL vial. […] After 72 hours, the solids were recovered via centrifugal filtration and analyzed by XRPD."}, "[2]": {"experiment": "Drying of solids and re-analysis by XRPD (form conversion)", "procedure": "Any new solids which produced patterns by XRPD were dried at 40° C. for 24 hours before being analyzed again. Potential New Patterns were also analyzed by ^1H NMR, PLM and TG/DSC.\nTo prepare crystalline forms 1 and 4 of Compound 1 mono-tosylate, 2×500 mg (1.01 mmol) of amorphous Compound 1 mono-tosylate was placed into 20 ml vials. To each of these vials, 12 ml of solvent (dichloromethane for crystalline form 1 and tetrahydrofuran for crystalline form 4) was added to prepare slurries. Volumes/mass used were a direct scale-up from the primary screen discussed above. The slurries were thermally cycled (with agitation) between ambient temperature and 40° C. (4-hour cycles at each condition) for 72 hours. Post-thermal cycling, an aliquot of solid was removed from each vial using a micro-spatula and analyzed by XRPD to confirm that the desired form was produced. The remainder of each slurry was then filtered by Buchner filtration. The solids were dried on the filter bed for no longer than 1 minute before being transferred to pre-weighed 20 ml vials. The solids were then dried under vacuum at ambient temperature for 2 hours. Another aliquot of each solid was analyzed by XRPD post-drying. […] As such, the solids were transferred to an oven at 40° C. (ambient pressure) and subsequently dried for approximately 18 hours. […] Crystalline form 1 yield: 86.1%. Crystalline form 4 yield: 84.2%."}, "[3]": {"experiment": "7 day stability study of solid forms (XRPD, HPLC)", "details": "stored 7 days; 40° C./75% RH (open vial) according to b80 and FIG. 14 legend", "procedure": "Crystalline form 5 of Compound 1 mono-tosylate was obtained during a 7 day stability study for crystalline forms 1 and 4. In the study, 3×20 mg (0.04 mmol) of crystalline forms 1 and 4, and amorphous Compound 1 mono-tosylate, were individually weighted into 1.5 mL vials and stored under the following conditions for 7 days: • (i) 40° C./75% relative humidity (RH) (open vial); • (ii) 80° C./ambient humidity (sealed vial); and • (iii) Ambient conditions (open vial).\nAfter 7 days, any remaining solids recovered were analyzed by XRPD to assess form purity and HPLC changes in chemical purity. […] More crystalline form 5 was prepared by storing 100 mg of crystalline form 4 […] for approximately 4 days."}, "[4]": {"details": "listed as Amorphous, mono-tosylate salt"}, "[5]": {"details": "listed as Form 6, mono-tosylate salt"}},
  "note": "Several values for one entry are separate records, joined by “and”; a condition that tells them apart may be missing. Equal entries are not always repeated.",
  "data": [
    {"molecule": "Cc1ccc(S(=O)(=O)O)cc1.NC[C@@H](C(=O)Nc1ccc2cnccc2c1)c1ccc(CO)cc1", "note": "[amorphous Compound 1 mono-tosylate, alpha-(aminomethyl)-4-(hydroxymethyl)-N-6-isoquinolinyl-(S)-benzeneacetamide mono-tosylate salt]", "values": [
      {"measurement": "Enthalpy", "setting": "TG/DSC thermal analysis; [4]", "value": 94.1, "unit": "J/g"},
      {"measurement": "Onset Temperature", "setting": "TG/DSC thermal analysis; [4]", "value": 184.0, "unit": "°C"},
      {"measurement": "Signal Temperature", "setting": "TG/DSC thermal analysis; [4]", "value": 202.1, "unit": "°C"},
      {"measurement": "onset of thermal decomposition", "setting": "TG/DSC thermal analysis; listed as Amorphous Compound 1 Mono-Tosylate, mono-tosylate salt", "value": "event associated with decomposition observed (onset 184° C.)"},
      {"measurement": "onset of thermal decomposition", "setting": "TG/DSC thermal analysis; listed as amorphous Compound 1, mono-tosylate salt", "value": 184, "unit": "°C"},
      {"measurement": "onset of thermal decomposition", "setting": "TG/DSC thermal analysis; listed as amorphous material, mono-tosylate salt", "value": "about 184 °C"}
    ]},
    {"molecule": "Cc1ccc(S(=O)(=O)O)cc1.NC[C@@H](C(=O)Nc1ccc2cnccc2c1)c1ccc(CO)cc1", "note": "[crystalline form 1, alpha-(aminomethyl)-4-(hydroxymethyl)-N-6-isoquinolinyl-(S)-benzeneacetamide mono-tosylate salt]", "values": [
      {"measurement": "form recovered (XRPD) after competitive slurrying", "setting": "[1]; forms 1, 4 and 5 together in saturated ethanol, 48 hours, ambient temperature and 60° C.", "value": "New crystalline form 6 was observed"},
      {"measurement": "onset of thermal decomposition", "setting": "TG/DSC thermal analysis; mono-tosylate salt", "value": 189, "unit": "°C"}
    ]},
    {"molecule": "Cc1ccc(S(=O)(=O)O)cc1.NC[C@@H](C(=O)Nc1ccc2cnccc2c1)c1ccc(CO)cc1", "note": "[crystalline form 3, alpha-(aminomethyl)-4-(hydroxymethyl)-N-6-isoquinolinyl-(S)-benzeneacetamide mono-tosylate salt]", "values": [
      {"measurement": "form conversion on drying", "setting": "[2]; drying at 40° C. for approximately 24 hours", "value": "convert to crystalline form 4"},
      {"measurement": "form conversion on drying", "setting": "[2]; oven at 40° C. (ambient pressure), approximately 18 hours", "value": "converted to crystalline form 4"},
      {"measurement": "form after drying", "setting": "[2]; under vacuum at ambient temperature for 2 hours", "value": "crystalline form 3 remained also"}
    ]},
    {"molecule": "Cc1ccc(S(=O)(=O)O)cc1.NC[C@@H](C(=O)Nc1ccc2cnccc2c1)c1ccc(CO)cc1", "note": "[crystalline form 4, alpha-(aminomethyl)-4-(hydroxymethyl)-N-6-isoquinolinyl-(S)-benzeneacetamide mono-tosylate salt]", "values": [
      {"measurement": "crystalline form found by XRPD after 7 day stability study", "setting": "[3]", "value": "converted into a new crystalline form: crystalline form 5"},
      {"measurement": "Enthalpy", "setting": "TG/DSC thermal analysis; listed as Form 4, mono-tosylate salt", "value": "148.3 J/g and 126.6 J/g"}
    ]},
    {"molecule": "Cc1ccc(S(=O)(=O)O)cc1.NC[C@@H](C(=O)Nc1ccc2cnccc2c1)c1ccc(CO)cc1", "note": "[crystalline form 6, alpha-(aminomethyl)-4-(hydroxymethyl)-N-6-isoquinolinyl-(S)-benzeneacetamide mono-tosylate salt]", "values": [
      {"measurement": "form after drying of the recovered solids", "setting": "[1]; dried at 40° C. for 2 hours", "value": "retained on drying"},
      {"measurement": "Enthalpy", "setting": "TG/DSC thermal analysis; [5]", "value": 165.0, "unit": "J/g"},
      {"measurement": "Onset Temperature", "setting": "TG/DSC thermal analysis; [5]", "value": 196.2, "unit": "°C"},
      {"measurement": "Signal Temperature", "setting": "TG/DSC thermal analysis; [5]", "value": 201.5, "unit": "°C"},
      {"measurement": "stability of the form (conclusion from thermal and NMR analyses)", "setting": "TG/DSC thermal analysis; no loss in mass on heating prior to melting/decomposition", "value": "stable anhydrous form"}
    ]}
  ]
}
